Activity calls are given as the source filed them. No cut-off for these calls is given here.
Tests used:
D(3) dopamine receptor = D(3) dopamine receptor (Homo sapiens, UniProt P35462); experiment: Displacement of [3H]methyl-spiperone from recombinant human D3 receptor measured after 60 mins by scintillation counting analysis
D(2) dopamine receptor = D(2) dopamine receptor (Homo sapiens, UniProt P14416); experiment: Displacement of [3H]methyl-spiperone from recombinant human D2S receptor measured after 60 mins by scintillation counting analysis
[1] = biological target: D(1A) dopamine receptor (Homo sapiens) (UniProt P21728); experiment: Displacement of [3H]SCH 23390 from recombinant human D1 receptor at 3 uM measured after 60 mins by scintillation counting analysis
[2] = biological target: Voltage-gated inwardly rectifying potassium channel KCNH2 (Homo sapiens, UniProt Q12809); experiment: Displacement of [3H]dofetilide from recombinant human ERG stably expressed in HEK293 cell membranes measured after 60 mins by scintillation counting analysis; assay type: toxicity, Membrane
[3] = biological target: Sigma intracellular receptor 2 (Homo sapiens) (UniProt Q5BJF2); experiment: Displacement of [3H]-DTG/(+) pentazocine from human sigma2 receptor at 3 uM measured after 60 mins by scintillation counting analysis
Chain of Sigma intracellular receptor 2 (Homo sapiens) (Q5BJF2 whole entry): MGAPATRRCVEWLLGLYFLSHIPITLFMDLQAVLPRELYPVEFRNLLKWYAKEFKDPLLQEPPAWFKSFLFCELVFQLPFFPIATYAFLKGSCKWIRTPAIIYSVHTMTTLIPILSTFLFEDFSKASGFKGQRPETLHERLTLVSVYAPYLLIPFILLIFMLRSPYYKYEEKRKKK

Chain of D(2) dopamine receptor (P14416 whole entry): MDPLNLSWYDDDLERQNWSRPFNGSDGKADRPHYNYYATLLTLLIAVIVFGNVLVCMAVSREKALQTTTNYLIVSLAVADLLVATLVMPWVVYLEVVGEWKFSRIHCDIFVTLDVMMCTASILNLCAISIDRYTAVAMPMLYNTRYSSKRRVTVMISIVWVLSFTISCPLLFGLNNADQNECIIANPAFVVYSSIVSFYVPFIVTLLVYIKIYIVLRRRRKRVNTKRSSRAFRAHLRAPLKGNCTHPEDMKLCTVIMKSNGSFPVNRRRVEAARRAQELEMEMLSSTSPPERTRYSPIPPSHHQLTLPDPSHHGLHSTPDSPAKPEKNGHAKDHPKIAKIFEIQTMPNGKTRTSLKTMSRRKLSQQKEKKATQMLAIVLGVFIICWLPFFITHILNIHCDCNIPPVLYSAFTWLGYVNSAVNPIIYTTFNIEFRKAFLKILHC
Chain of D(3) dopamine receptor (P35462 whole entry): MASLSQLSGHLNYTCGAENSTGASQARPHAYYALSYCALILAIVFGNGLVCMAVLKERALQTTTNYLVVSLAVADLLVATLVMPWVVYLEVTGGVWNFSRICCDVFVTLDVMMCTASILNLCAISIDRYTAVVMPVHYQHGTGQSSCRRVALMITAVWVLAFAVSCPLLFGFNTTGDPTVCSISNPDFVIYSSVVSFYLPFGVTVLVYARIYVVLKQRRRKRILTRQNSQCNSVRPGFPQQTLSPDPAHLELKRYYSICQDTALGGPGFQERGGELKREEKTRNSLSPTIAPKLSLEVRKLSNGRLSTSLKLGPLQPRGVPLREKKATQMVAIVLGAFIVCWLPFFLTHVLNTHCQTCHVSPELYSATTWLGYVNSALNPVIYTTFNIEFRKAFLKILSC
Chain of D(1A) dopamine receptor (Homo sapiens) (P21728 whole entry): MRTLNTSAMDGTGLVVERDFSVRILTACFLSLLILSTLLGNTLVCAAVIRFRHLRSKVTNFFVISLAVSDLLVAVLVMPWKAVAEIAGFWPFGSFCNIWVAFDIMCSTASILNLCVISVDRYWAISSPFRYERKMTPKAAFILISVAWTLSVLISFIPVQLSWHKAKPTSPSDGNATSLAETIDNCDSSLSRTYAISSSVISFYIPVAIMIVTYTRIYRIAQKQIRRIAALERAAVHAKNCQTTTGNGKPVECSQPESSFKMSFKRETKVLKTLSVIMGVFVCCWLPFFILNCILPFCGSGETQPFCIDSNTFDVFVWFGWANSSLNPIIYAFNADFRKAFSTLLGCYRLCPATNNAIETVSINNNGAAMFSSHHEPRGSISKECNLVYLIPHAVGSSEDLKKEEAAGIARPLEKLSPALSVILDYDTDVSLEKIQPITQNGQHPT
Chain of Voltage-gated inwardly rectifying potassium channel KCNH2 (Q12809 whole entry): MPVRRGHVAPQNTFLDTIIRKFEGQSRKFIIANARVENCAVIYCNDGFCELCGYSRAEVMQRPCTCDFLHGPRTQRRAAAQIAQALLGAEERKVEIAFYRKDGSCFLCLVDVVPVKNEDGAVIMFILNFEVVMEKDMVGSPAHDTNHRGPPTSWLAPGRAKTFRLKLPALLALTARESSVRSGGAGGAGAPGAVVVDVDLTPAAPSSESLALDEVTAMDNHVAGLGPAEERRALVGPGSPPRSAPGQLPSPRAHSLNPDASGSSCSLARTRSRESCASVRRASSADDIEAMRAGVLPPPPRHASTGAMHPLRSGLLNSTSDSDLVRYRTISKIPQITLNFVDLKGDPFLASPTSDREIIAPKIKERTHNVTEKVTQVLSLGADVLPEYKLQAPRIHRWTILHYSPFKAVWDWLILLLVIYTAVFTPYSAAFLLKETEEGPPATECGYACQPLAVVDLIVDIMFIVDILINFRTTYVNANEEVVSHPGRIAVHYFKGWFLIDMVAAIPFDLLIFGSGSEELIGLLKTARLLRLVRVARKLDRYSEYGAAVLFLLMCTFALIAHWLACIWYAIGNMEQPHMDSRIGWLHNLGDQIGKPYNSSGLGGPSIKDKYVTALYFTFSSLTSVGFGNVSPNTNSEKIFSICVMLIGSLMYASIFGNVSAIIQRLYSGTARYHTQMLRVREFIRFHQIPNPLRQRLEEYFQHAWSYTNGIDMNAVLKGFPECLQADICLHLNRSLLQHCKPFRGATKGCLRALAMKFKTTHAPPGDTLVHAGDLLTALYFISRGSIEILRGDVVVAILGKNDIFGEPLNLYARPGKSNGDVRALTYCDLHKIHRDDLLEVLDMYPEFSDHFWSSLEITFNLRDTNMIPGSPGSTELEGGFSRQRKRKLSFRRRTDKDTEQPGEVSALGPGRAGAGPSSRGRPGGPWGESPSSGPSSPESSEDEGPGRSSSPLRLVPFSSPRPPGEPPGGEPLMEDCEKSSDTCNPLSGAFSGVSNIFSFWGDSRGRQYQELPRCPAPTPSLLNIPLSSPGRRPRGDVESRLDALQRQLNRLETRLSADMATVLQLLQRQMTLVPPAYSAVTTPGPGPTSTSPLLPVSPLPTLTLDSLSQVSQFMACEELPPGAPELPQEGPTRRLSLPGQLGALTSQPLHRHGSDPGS

Ki (D(3) dopamine receptor): > 10 µM
Ki (D(2) dopamine receptor): 6.3 µM
Activity [1]: Active
Activity [3]: Active
SMILES: c1ccc(Cc2cn(C3CCN(Cc4ccccc4)CC3)nn2)cc1
Ki [2]: 4.6 µM

Source: ChEMBL document CHEMBL5113450, “Discovery of potent dual ligands for dopamine D4 and σ1 receptors” (Bioorg Med Chem, 2022)
